The numbers were not newly measured in patent US6751290B2, “Radiographic assessment of tissue after exposure to a compound” (Veritas Pharmaceuticals, Inc., priority 1998, dated 2004), which cites them from elsewhere.

The structures appear in SMILES notation.

For this series the following is noted: experimental logP values, commonly used non-ionic radiographic contrast agents (Hansch et al. 1995).

In the case of `CC(=O)N(CC(O)CO)c1c(I)c(C(=O)NCC(O)CO)c(I)c(C(=O)NCC(O)CO)c1I` (stereo not drawn) [Iohexol], the logP (commonly the decadic logarithm of the partition coefficient of the neutral form, usually between octanol and water) was −3.05.

As to `COCC(=O)Nc1c(I)c(C(=O)NCC(O)CO)c(I)c(C(=O)N(C)CC(O)CO)c1I` (stereo not drawn) [Iopromide], the logP was −2.05.

Regarding `CC(=O)Nc1c(I)c(C(=O)N[C@H]2C(O)O[C@H](CO)[C@@H](O)[C@@H]2O)c(I)c(N(C)C(C)=O)c1I` (stereo partly drawn) [Metrizamide], the logP is −1.86.
